{
  "source": "patent US20190054054A1",
  "about": "“Methods reducing or preventing oxidation of high density lipoprotein (HDL)” (Amarin Pharmaceuticals Ireland Limited, priority 2017, published 2019)",
  "key": {"[1]": {"assay": "Lipid hydroperoxide (LOOH) formation in cholesterol-enriched model membranes under autoxidation (Example 3)", "assay_type": "biochemical", "details": "EPA to lipids 1:30, C/P mole ratio 0.6:1", "procedure": "An experiment was conducted to test EPA in model membranes enriched with PUFAs and cholesterol at levels that reproduce disease or high CV-risk conditions (i.e., hypercholesterolemia). […] Levels of lipid hydroperoxides were also measured in cholesterol-enriched membrane prepared in the absence of EPA as a control. […] CHOD-iodide color reagent (stock) was prepared according to a procedure modified from El-Saadani et […], Goher […], Jurgens G. A spectrophotometric assay for lipid peroxides in serum lipoproteins using commercially available reagent. J. Lipid. […] Membrane samples consisting of DLPC±cholesterol were prepared as follows. […] To ensure spectrophotometric readings within the optimum absorbance range, sample volumes taken for measurement of lipid peroxide formation were adjusted for length of peroxidation and range between 100 and 10 μL. […] Absorbances were measured against a CHOD blank at 365 nm using a Beckman DU-640 spectrophotometer. The CHOD colorimetric assay is based on the oxidation of iodide (I^-) by lipid hydroperoxides (LOOH) and proceeds according to the following reaction scheme: […]3^- The quantity of triiodide anion (I3^-) liberated in this reaction is directly proportional to the amount of lipid hydroperoxides present in the membrane sample."}, "[2]": {"assay": "Cholesterol domain formation by small angle x-ray diffraction (Example 3)", "details": "PUFA-enriched model membranes, after autoxidation", "procedure": "Cholesterol domain peak intensity was calculated from multiple small angle x-ray diffraction measurements, which are directly proportional to domain levels. […] EPA-treated membranes reduced LOOH levels by greater than 90% (728±30 μM) compared to untreated controls (p<0.001)."}, "[3]": {"assay": "Glucose- and peroxidation-induced cholesterol domain formation, small angle x-ray diffraction (Example 4)", "details": "1:30 mole ratio; for effect on membrane structure as compared to control: at the start of the experiment (0 hours)", "procedure": "Samples were shell-dried under nitrogen gas and placed under vacuum for 1 h to remove residual solvent. […] Lipid suspensions were then vortexed for 3 min at ambient temperature to form MLVs. […] Membrane lipid vesicles were oriented for x-ray diffraction analysis as described by others (e.g., Herbette et al., Biophys. […] Briefly, a 100 μL aliquot (containing 250 μg MLV) was aspirated from each sample and transferred to a Lucite® sedimentation cell fitted with an aluminum foil substrate upon which a given sample could be collected by centrifugation. Samples were then loaded into a Sorvall AH-629 swinging bucket rotor (DuPont Corp., Wilmington, Del.) and centrifuged at 35,000 g, 5° C., for 90 min. After centrifugal orientation, sample supernatants were aspirated and aluminum foil substrates, each supporting a single membrane pellet, were removed from the sedimentation cells. Sample pellets were dried for 5-10 min at ambient conditions, mounted onto curved glass supports, and placed in hermetically-sealed, brass or glass containers (for immediate analysis or temporary storage, respectively). All x-ray diffraction experiments were conducted at 20° C., 74% relative humidity. The latter was established by exposing membrane samples to saturated solutions of L-(+) tartaric acid (K2C4H4O6.½H2O). Samples were incubated at these conditions for at least 1 hour prior to experimental analysis. Oriented membrane samples were aligned at grazing incidence with respect to a collimated, mono-chromatic CuKα x-ray beam (Kα1 and Kα2 unresolved; λ=1.54 Å) produced by a Rigaku Rotaflex RU-200, high-brilliance microfocus generator (Rigaku-MSC, The Woodlands, Tex.) as previously described (Mason et al., Biophys. J., vol. 55(4), pages 769-778 (1989)). Diffraction data were collected on a one-dimensional, position-sensitive electron detector (Hecus X-ray Systems, Graz, Austria) at a sample-to-detector distance of 150 mm. […] The d-space for any given membrane multibilayer is a measurement of the unit cell periodicity of the membrane lipid bilayer (e.g., the distance from the center of one lipid bilayer to the next including surface hydration), and is calculated from Bragg's Law, h λ=2 d sin θ, where h is the diffraction order, λ is the wavelength of the x-ray radiation (1.54 Å), d is the membrane lipid bilayer unit cell periodicity, and θ is the Bragg angle equal to one-half the angle between the incident beam and scattered beam. […] Under the specific temperature and relative humidity conditions established for these experiments, the second-order, 17 Å cholesterol domain peak was well-delineated from other, neighboring cholesterol and phospholipid diffraction peaks and was thus used to quantitate relative cholesterol domain peak intensity. […]"}, "unfractionated LDL": {"system": "unfractionated LDL", "assay": "Copper-induced oxidation of unfractionated LDL, TBARS after 2 hr (Example 6)", "assay_type": "biochemical, human"}, "[4]": {"system": "sdLDL isolated from human plasma", "assay": "Copper-induced sdLDL oxidation for 1 hour (Example 12)", "assay_type": "biochemical", "details": "10.0 μM; sdLDL 200 μg/mL; copper-induced oxidation 1 hour"}, "[5]": {"details": "patients; clinical studies by others; cited from earlier work"}},
  "note": "Entries after “also recorded” stand apart in the source; their conditions may differ.",
  "data": [
    {"smiles": "CC/C=C\\C/C=C\\C/C=C\\C/C=C\\C/C=C\\CCCC(=O)O", "note": "[EPA, cis-5,8,11,14,17-eicosapentaenoic acid]", "values": [
      {"measurement": "LOOH level", "setting": "[1]; after autoxidation 72 hours", "value": "728 ± 30", "unit": "µM"},
      {"measurement": "reduction of LOOH levels compared to untreated controls", "setting": "[1]; autoxidation 37° C., 72 hours", "value": "greater than 90%"},
      {"measurement": "cholesterol crystalline domain formation", "setting": "[2]", "value": "inhibits cholesterol crystalline domain formation"},
      {"measurement": "inhibition of relative cholesterol domain peak intensity", "setting": "[3]; 96-hour time point, compared to vehicle or vitamin E", "value": "more than 99%"},
      {"measurement": "effect on membrane structure as compared to control", "setting": "[3]; glucose 200 mg/dL", "value": "no appreciable effect on membrane structure"},
      {"measurement": "reduction of TBARS levels", "setting": "unfractionated LDL; 10.0 μM, unfractionated LDL", "value": 17, "unit": "%"},
      {"measurement": "reduction of sdLDL oxidation compared to vehicle treatment alone", "setting": "[4]", "value": "> 90", "unit": "%"},
      {"measurement": "triglycerides and oxidized LDL, Lp-PLA2, hsCRP as compared to placebo", "setting": "[5]", "value": "significant reductions in levels of oxidized LDL, Lp-PLA2, and hsCRP; also recorded: significant reductions in triglycerides along with reduced levels of markers of inflammation"}
    ]},
    {"smiles": "Cc1c(C)c2c(c(C)c1O)CC[C@@](C)(CCC[C@H](C)CCC[C@H](C)CCCC(C)C)O2", "note": "[vitamin E, α-tocopherol]", "values": [
      {"measurement": "effect on cholesterol domain formation as compared to control", "setting": "[3]; any experimental time point, glucose 200 mg/dL", "value": "no significant effect on cholesterol domain formation"},
      {"measurement": "effect on membrane structure as compared to control", "setting": "[3]; glucose 200 mg/dL", "value": "no appreciable effect on membrane structure"},
      {"measurement": "effect on LDL oxidation", "setting": "unfractionated LDL; 1.0 μM to 10.0 μM", "value": "did not inhibit LDL oxidation at any concentration"}
    ]}
  ]
}
